Measurements: patent publication US20090018194A1, “Use of antimicrobial agents derived from alliaceous plants for the prevention and control of crop diseases, post-harvest rot and as environmental disinifectant products” (DMC Research Center, S.L., priority 2007, published 2009)

What was measured:
[1] = system: Bacillus subtilis ATCC 6633; experiment: agar diffusion test with impregnated cellulose discs; format: cell-based; conditions: incl. 6 mm disc
[2] = system: Bacillus cereus ATCC 10876; experiment: as above; format: cell-based; conditions: incl. 6 mm disc
[3] = system: Enteroccus faecalis ATCC 29212; experiment: as above; format: cell-based; conditions: incl. 6 mm disc
[4] = system: Listeria innocua CECT 4030; experiment: as above; format: cell-based; conditions: incl. 6 mm disc
[5] = system: Salmonella typhimurium ATCC 13311; experiment: as above; format: cell-based; conditions: incl. 6 mm disc
[6] = system: Escherichia coli ATCC 25922; experiment: as above; format: cell-based; conditions: incl. 6 mm disc
[7] = system: Pseudomonas aeruginosa ATCC 9027; experiment: as above; format: cell-based; conditions: incl. 6 mm disc
[8] = system: Penicillium solitum Wild strain; experiment: as above; format: cell-based; conditions: incl. 6 mm disc
Fusarium spp. [9] = experiment: field tests on affected asparagus, Fusarium spp. in the soil; format: in vivo; conditions: for % Reduction / % elimination: soil, 60 days after application, compared to untreated control
Protocol: (§1) The treatment doses used were 250, 500 and 1000 ppm of both active principles (PT and PTSO), and the initial incidence of the pathogen was compared with its presence 60 days after its application.
(§2) To analyze the growth of the crops infected by Fusarium spp. after the treatments, root and soil samples were taken and tests were performed in the laboratory to investigate the incidence of the pathogen in the roots and soil. The cultivation media used were potato dextrose agar and rose bengal agar (to prevent the invasive character of the Mucoralean fungi).
(§3) The soil analysis was conducted by sequential dilutions of the soils in physiological serum with a subsequent sowing in the above mentioned media. The analysis of the roots was performed after dissection of the infected tissues, which were deposited in triplicate on filter paper located above both media, and their evolution over time was studied.
(§4) The data are expressed as a percentage of elimination and reduction as a function of the treatment dose compared to the untreated control samples.

Fusarium spp. [10] = experiment: field tests on affected asparagus, Fusarium spp. in roots; format: in vivo; conditions: 60 days after application, compared to untreated control
Protocol: as §1, §2, §3, §4

Penicillium digitatum = experiment: reduction of spores in suspension in absence or presence of organic matter; format: cell-based; conditions: PTS 750 ppm 1 min.
Description: (§5) In addition, under the real conditions of a disinfecting bath for boxes, crates and containers, as well as for the disinfection of rooms and work surfaces, organic material (soil residue, rotten fruit, leaves etc.) is generally present, which can reduce the action of the disinfectant agent. Therefore, the effectiveness of PTS and PTSO has also been assessed in the presence of organic matter on two pathogens that cause post-harvest rot of stone fruit (Penicillium expansum) and citrus fruit (Penicillium digitatum).

Penicillium expansum = experiment: as above; format: cell-based; conditions: PTS 750 ppm 1 min.
Description: as §5

[11] = system: mixture of fungi (P. expansum, P. italicum, P. digitatum and A. alternata); experiment: disinfection of rooms by means of fogging
Rhizopus stolonifer = experiment: disinfection of containers stored inside the rooms by fogging
[12] = system: plants inoculated with mycorrhizal fungi; conditions: in vivo
[13] = organic matter Absence, 0 hours
[14] = organic matter Absence, 2 hours
[15] = organic matter Absence, 3 hours
[16] = organic matter Presence, 0 hours
[17] = organic matter Presence, 1 hour
[18] = organic matter Presence, 2 hours
[19] = organic matter Presence, 3 hours

Compound: CCCS[S+]([O-])CCC (centres unmarked) [PTS, Propyl Propyl Thiosulfinate]
- diameter of the microbial inhibition halo ([1]; 60 ppm): 32 mm
- diameter of the microbial inhibition halo ([1]; 125 ppm): 35 mm
- diameter of the microbial inhibition halo ([1]; 250 ppm): 40 mm
- diameter of the microbial inhibition halo ([1]; 500 ppm): 55 mm
- diameter of the microbial inhibition halo ([1]; 1000 ppm): 55 mm
- diameter of the microbial inhibition halo ([2]; 60 ppm): 15 mm
- diameter of the microbial inhibition halo ([2]; 125 ppm): 20 mm
- diameter of the microbial inhibition halo ([2]; 250 ppm): 25 mm
- diameter of the microbial inhibition halo ([2]; 500 ppm): 27 mm
- diameter of the microbial inhibition halo ([2]; 1000 ppm): 35 mm
- diameter of the microbial inhibition halo ([3]; 60 ppm): 15 mm
- diameter of the microbial inhibition halo ([3]; 125 ppm): 22 mm
- diameter of the microbial inhibition halo ([3]; 250 ppm): 26 mm
- diameter of the microbial inhibition halo ([3]; 500 ppm): 30 mm
- diameter of the microbial inhibition halo ([3]; 1000 ppm): 30 mm
- diameter of the microbial inhibition halo ([4]; 60 ppm): 13 mm
- diameter of the microbial inhibition halo ([4]; 125 ppm): 23 mm
- diameter of the microbial inhibition halo ([4]; 250 ppm): 32 mm
- diameter of the microbial inhibition halo ([4]; 500 ppm): 37 mm
- diameter of the microbial inhibition halo ([4]; 1000 ppm): 40 mm
- diameter of the microbial inhibition halo ([5]; 60 ppm): 11 mm
- diameter of the microbial inhibition halo ([5]; 125 ppm): 15 mm
- diameter of the microbial inhibition halo ([5]; 250 ppm): 22 mm
- diameter of the microbial inhibition halo ([5]; 500 ppm): 23 mm
- diameter of the microbial inhibition halo ([5]; 1000 ppm): 25 mm
- diameter of the microbial inhibition halo ([6]; 60 ppm): 12 mm
- diameter of the microbial inhibition halo ([6]; 125 ppm): 17 mm
- diameter of the microbial inhibition halo ([6]; 250 ppm): 24 mm
- diameter of the microbial inhibition halo ([6]; 500 ppm): 25 mm
- diameter of the microbial inhibition halo ([6]; 1000 ppm): 27 mm
- diameter of the microbial inhibition halo ([7]; 60 ppm): 8 mm
- diameter of the microbial inhibition halo ([7]; 125 ppm): 9 mm
- diameter of the microbial inhibition halo ([7]; 250 ppm): 10 mm
- diameter of the microbial inhibition halo ([7]; 500 ppm): 12 mm
- diameter of the microbial inhibition halo ([7]; 1000 ppm): 14 mm
- diameter of the microbial inhibition halo ([8]; 60 ppm): 0 mm
- diameter of the microbial inhibition halo ([8]; 125 ppm): 11 mm
- diameter of the microbial inhibition halo ([8]; 250 ppm): 16 mm
- diameter of the microbial inhibition halo ([8]; 500 ppm): 28 mm
- diameter of the microbial inhibition halo ([8]; 1000 ppm): 35 mm
- % Reduction (Fusarium spp. [9]; 250 ppm): 0%
- % elimination (Fusarium spp. [9]; 250 ppm): 100%
- % Reduction (Fusarium spp. [9]; 500 ppm): 12.5%
- % elimination (Fusarium spp. [9]; 500 ppm): 87.5%
- % Reduction (Fusarium spp. [9]; 1000 ppm): 0%
- % elimination (Fusarium spp. [9]; 1000 ppm): 100%
- effectiveness of the application (in words) (Fusarium spp. [9]; Fusarium spp. in asparagus, disinfection of agricultural soil): highly effective
- % Reduction (Fusarium spp. [10]; 250 ppm): 60%
- % elimination (Fusarium spp. [10]; 250 ppm): 0%
- % Reduction (Fusarium spp. [10]; 500 ppm): 14%
- % elimination (Fusarium spp. [10]; 500 ppm): 57%
- % Reduction (Fusarium spp. [10]; 1000 ppm): 13%
- % elimination (Fusarium spp. [10]; 1000 ppm): 58%
- Reduction of the population (%) (Penicillium digitatum; [13]): 100%
- Reduction of the population (%) (Penicillium digitatum; organic matter Absence, 1 hour): 100%
- Reduction of the population (%) (Penicillium digitatum; [14]): 100%
- Reduction of the population (%) (Penicillium digitatum; [15]): 100%
- Reduction of the population (%) (Penicillium digitatum; [16]): 100%
- Reduction of the population (%) (Penicillium digitatum; [17]): 100%
- Reduction of the population (%) (Penicillium digitatum; [18]): 100%
- Reduction of the population (%) (Penicillium digitatum; [19]): 100%
- Reduction of the population (%) (Penicillium expansum; [13]): 68%
- Reduction of the population (%) (Penicillium expansum; organic matter Absence, 1 hour): 82%
- Reduction of the population (%) (Penicillium expansum; [14]): 45%
- Reduction of the population (%) (Penicillium expansum; [15]): 68%
- Reduction of the population (%) (Penicillium expansum; [16]): 73%
- Reduction of the population (%) (Penicillium expansum; [17]): 41%
- Reduction of the population (%) (Penicillium expansum; [18]): 36%
- Reduction of the population (%) (Penicillium expansum; [19]): 18%
- Reduction in the population of the mixture of fungi expressed in % ([11]; 750 ppm, Environment): 89%
- Reduction in the population of the mixture of fungi expressed in % ([11]; 750 ppm, Walls): 96%
- Reduction in the population of the mixture of fungi expressed in % ([11]; 1050 ppm, Environment): 100%
- Reduction in the population of the mixture of fungi expressed in % ([11]; 1050 ppm, Walls): 97%
- Reduction of the population (%) (Rhizopus stolonifer; 750 ppm, Plastic container): 36%
- Reduction of the population (%) (Rhizopus stolonifer; 1050 ppm, Plastic container): 27%
- Reduction of the population (%) (Rhizopus stolonifer; 1050 ppm, Wood container): 26%
- phytotoxicity to the plant [12]: did not suffer phytotoxicity
